{
  "source": "patent US11572590B2",
  "about": "“Methods for evaluating tumor cell spheroids using 3D microfluidic cell culture device” (Dana-Farber Cancer Institute, Inc., priority 2017, dated 2023)",
  "key": {"off-target kinases [1]": {"biological_target": "T1, off-target kinases (Homo sapiens, UniProt O14965)", "T1 sequence (O14965 1-403)": "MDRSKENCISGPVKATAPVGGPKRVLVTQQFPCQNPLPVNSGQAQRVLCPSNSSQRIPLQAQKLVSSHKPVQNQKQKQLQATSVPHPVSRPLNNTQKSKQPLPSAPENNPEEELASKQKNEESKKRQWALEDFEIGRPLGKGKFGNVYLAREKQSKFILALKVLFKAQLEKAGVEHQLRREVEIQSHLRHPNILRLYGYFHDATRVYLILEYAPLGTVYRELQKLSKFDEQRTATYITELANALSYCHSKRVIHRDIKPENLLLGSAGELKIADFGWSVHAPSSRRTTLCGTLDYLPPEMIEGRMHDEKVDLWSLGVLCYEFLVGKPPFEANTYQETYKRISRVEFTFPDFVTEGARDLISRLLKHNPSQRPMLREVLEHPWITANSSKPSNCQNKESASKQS", "assay": "SelectScreen Kinase Profiling, single point inhibition and IC50 for off-target kinases", "type": "biochemical", "settings": "AURKA (Aurora A), ATP Km app, ZLYTE"}, "off-target kinases [2]": {"biological_target": "T2, off-target kinases (Homo sapiens, UniProt Q13873)", "T2 sequence (Q13873 27-1038)": "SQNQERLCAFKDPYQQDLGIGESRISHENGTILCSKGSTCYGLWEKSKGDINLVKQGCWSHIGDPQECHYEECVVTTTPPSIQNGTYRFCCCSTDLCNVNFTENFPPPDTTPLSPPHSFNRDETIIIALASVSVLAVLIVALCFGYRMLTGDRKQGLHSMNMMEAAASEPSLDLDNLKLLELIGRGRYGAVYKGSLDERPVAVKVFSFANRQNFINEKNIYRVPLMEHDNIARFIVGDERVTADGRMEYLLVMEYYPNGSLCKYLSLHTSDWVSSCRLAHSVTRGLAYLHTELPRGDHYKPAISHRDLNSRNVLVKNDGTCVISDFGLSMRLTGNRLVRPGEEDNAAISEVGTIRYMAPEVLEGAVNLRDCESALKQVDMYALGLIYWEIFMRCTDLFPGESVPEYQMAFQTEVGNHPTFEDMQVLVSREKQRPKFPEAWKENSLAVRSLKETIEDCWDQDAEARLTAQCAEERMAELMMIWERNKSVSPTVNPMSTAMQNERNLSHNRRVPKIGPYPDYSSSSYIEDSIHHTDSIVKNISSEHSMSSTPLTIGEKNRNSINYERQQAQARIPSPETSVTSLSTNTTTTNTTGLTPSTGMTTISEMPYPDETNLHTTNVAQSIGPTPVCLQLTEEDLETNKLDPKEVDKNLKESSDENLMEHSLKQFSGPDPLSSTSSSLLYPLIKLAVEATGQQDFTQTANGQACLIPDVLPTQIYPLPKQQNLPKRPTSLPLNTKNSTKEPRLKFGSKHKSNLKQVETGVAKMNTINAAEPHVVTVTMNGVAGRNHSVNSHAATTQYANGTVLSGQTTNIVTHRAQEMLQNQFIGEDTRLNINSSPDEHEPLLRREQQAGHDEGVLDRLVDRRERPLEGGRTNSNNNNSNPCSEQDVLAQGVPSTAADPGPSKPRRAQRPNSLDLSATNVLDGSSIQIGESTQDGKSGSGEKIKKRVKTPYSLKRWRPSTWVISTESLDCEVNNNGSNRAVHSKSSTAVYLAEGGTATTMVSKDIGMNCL", "assay": "SelectScreen Kinase Profiling, single point inhibition and IC50 for off-target kinases", "type": "biochemical", "settings": "BMPR2, LanthaScreen Binding"}},
  "note": "Read-outs that look alike come from different tables or passages of the source.",
  "data": [
    {"smiles": "N#Cc1cc(-c2ncnc(Nc3ccc(N4CCN(C5COC5)CC4)cc3)n2)ccc1OC1CCOCC1", "note": "[Compound 1, 5-(4-((4-(4-(oxetan-3-yl)piperazin-1-yl)phenyl)amino)-1,3,5-triazin-2-yl)-2-((tetrahydro-2H-pyran-4-yl)oxy)benzonitrile]", "values": [
      {"measurement": "inhibition", "setting": "off-target kinases [1]; read-out: % Inhibition 1", "result": 91, "unit": "%"},
      {"measurement": "inhibition", "setting": "off-target kinases [1]; read-out: % Inhibition 2", "result": 86, "unit": "%"},
      {"measurement": "inhibition", "setting": "off-target kinases [1]; read-out: % Inhibition Avg", "result": 89, "unit": "%"},
      {"measurement": "inhibition", "setting": "off-target kinases [2]; read-out: % Inhibition 1", "result": 50, "unit": "%"},
      {"measurement": "inhibition", "setting": "off-target kinases [2]; read-out: % Inhibition 2", "result": 47, "unit": "%"},
      {"measurement": "inhibition", "setting": "off-target kinases [2]; read-out: % Inhibition Avg", "result": 49, "unit": "%"}
    ]}
  ]
}
